Test results: patent publication US20230072683A1, “PYRIDO-PYRIMIDIN DERIVATIVES AND PHARMACEUTICAL COMPOSITION, FOR USE IN PREVENTING OR TREATING PI3 KINASE RELATED DISEASES, COMPRISING SAME AS ACTIVE INGREDIENT” (BORYUNG PHARMACEUTICAL CO., LTD, priority 2019, published 2023)
Where two headings read alike, the source gives them in different places.

Key:
[1] = target: PI3K-δ (PI3K(p1108/p857) (h)) (Homo sapiens, UniProt O00329); assay: Evaluation of inhibitory activity against PI3K-δ (HTRF kinase assay); type: biochemical; conditions: for inhibition at 0.01 µM: compound concentration 0.01 μM, read-out: EXP_VALUE(% Inhibition) PI3K-δ 0.01 μM; for inhibition at 0.1 µM: read-out: EXP_VALUE(% Inhibition) PI3K-δ 0.1 μM
Outline: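 HTRF read-out (665/620 nm ratio ×10000) used Eu-labelled anti-GST, GST-tagged GRP1 PH domain and streptavidin-allophycocyanin after EDTA/PIP3 stop.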

[2] = target: DNA-PK(h) (Homo sapiens, UniProt P78527); assay: Evaluation of inhibitory activity against DNA-PK (HTRF kinase assay, GST-cMyc-p53 substrate); type: biochemical; conditions: for inhibition at 0.01 µM: compound concentration 0.01 μM, read-out: EXP_VALUE(% Inhibition) DNA-PK(h) 0.01 μM; for inhibition at 0.1 µM: read-out: EXP_VALUE(% Inhibition) DNA-PK(h) 0.1 μM
Outline: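 Human DNA-PK with 50 μM GST-cMyc-p53 substrate; reaction started with Mg/ATP, run 30 min at room temperature, stopped with EDTA. Phospho-Ser15 p53 detected by HTRF (Eu anti-phospho-Ser15, d2 anti-GST), signal = 10000×(Em 665/Em 620).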

Sequence of PI3K-δ (PI3K(p1108/p857) (h)) (O00329 whole entry, the tested form may be a part): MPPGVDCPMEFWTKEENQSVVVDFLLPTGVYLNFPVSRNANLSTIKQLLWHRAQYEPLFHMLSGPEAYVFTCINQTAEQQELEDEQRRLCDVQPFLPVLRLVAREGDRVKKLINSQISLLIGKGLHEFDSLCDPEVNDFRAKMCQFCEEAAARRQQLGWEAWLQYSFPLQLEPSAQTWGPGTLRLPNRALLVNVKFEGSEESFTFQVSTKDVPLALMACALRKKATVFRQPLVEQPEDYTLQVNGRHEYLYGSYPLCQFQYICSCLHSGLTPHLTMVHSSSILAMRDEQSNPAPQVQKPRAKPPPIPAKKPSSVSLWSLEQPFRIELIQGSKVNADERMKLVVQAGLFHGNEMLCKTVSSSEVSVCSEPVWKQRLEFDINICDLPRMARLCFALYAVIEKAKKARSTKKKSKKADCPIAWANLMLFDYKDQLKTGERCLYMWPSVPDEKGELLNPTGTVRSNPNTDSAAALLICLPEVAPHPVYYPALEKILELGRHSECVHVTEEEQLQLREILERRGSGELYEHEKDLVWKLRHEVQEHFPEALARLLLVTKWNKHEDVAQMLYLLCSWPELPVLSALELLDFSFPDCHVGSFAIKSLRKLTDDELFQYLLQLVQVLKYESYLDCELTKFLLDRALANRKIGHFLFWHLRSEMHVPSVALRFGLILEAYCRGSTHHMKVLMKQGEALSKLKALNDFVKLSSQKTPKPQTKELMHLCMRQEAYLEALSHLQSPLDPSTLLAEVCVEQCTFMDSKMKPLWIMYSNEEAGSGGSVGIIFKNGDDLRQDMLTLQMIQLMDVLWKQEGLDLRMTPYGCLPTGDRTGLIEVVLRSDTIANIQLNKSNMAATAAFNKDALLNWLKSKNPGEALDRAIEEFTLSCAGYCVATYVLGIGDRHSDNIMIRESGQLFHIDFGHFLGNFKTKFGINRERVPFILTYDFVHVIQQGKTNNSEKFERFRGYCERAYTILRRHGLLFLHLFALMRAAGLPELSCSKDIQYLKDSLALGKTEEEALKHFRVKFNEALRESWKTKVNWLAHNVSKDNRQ
Sequence of PI3K-δ (PI3K(p1108/p857) (h)) (P27986 whole entry partner, the tested form may be a part): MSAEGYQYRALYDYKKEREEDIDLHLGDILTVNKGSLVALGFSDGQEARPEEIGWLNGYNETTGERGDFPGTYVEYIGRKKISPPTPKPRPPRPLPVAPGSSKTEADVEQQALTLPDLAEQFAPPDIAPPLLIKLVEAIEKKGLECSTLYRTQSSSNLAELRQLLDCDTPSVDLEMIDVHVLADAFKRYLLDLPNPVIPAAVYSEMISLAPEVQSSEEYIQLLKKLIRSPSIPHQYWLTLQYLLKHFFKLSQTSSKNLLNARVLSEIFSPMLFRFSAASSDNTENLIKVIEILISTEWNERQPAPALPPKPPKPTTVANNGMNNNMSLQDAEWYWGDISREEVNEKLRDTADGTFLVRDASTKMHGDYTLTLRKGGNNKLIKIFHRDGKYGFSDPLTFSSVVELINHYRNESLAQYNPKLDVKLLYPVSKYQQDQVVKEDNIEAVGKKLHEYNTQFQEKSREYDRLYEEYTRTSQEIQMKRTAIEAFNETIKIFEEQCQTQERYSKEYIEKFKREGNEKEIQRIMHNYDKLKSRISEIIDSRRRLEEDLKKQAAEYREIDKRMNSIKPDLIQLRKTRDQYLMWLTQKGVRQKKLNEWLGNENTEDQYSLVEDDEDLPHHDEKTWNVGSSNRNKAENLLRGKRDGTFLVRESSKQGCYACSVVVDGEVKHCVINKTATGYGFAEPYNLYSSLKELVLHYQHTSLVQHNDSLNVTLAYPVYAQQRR

| SMILES | inhibition at 0.01 µM [1] | inhibition at 0.01 µM [2] | inhibition at 0.1 µM ([1]; compound concentration 0.1 μM) | inhibition at 0.1 µM ([2]; compound concentration 0.1 μM) | inhibition at 0.1 µM ([1]; compound at 0.1 μM) | inhibition at 0.1 µM ([2]; compound at 0.1 μM) |
| --- | --- | --- | --- | --- | --- | --- |
| C[C@H](Nc1ncnc2[nH]ccc(=O)c12)c1c(Cl)c2cccc(N(C)c3ccccn3)c2c(=O)n1-c1ccccc1 [Example 349, (S)-4-((1-(4-chloro-8-(methyl(pyridin-2-yl)amino)-1-oxo-2-phenyl-1,2-dihydroisoquinolin-3-yl)ethyl)amino)pyrido[2,3-d]pyrimidin-5(8H)-one] | 72% | 15% | – | – | – | – |
| C[C@H](Nc1ncnc2[nH]ccc(=O)c12)c1c(Cl)c2cccc(-c3cnc4nonc4c3)c2c(=O)n1-c1ccccc1 [Example 235, (S)-4-((1-(8-([1,2,5]oxadiazolo[3,4-b]pyridin-6-yl)-4-chloro-1-oxo-2-phenyl-1,2-dihydroisoquinolin-3-yl)ethyl)amino)pyrido[2,3-d]pyrimidin-5(8H)-one] | 80% | 46% | – | – | – | – |
| C[C@H](Nc1ncnc2[nH]ccc(=O)c12)c1c(Cl)c2cccc(-c3ccc4c(c3)OCCN4)c2c(=O)n1-c1ccccc1 [Example 120, (S)-4-((1-(4-chloro-8-(3,4-dihydro-2H-benzo[b][1,4]oxazin-7-yl)-1-oxo-2-phenyl-1,2-dihydroisoquinolin-3-yl)ethyl)amino)pyrido[2,3-d]pyrimidin-5(8H)-one] | 65% | 72% | 95% | 98% | – | – |
| C[C@H](Nc1ncnc2[nH]ccc(=O)c12)c1c(Cl)c2cccc(-c3cnc(N4CCCC4)nc3)c2c(=O)n1-c1ccccc1 [Example 222, (S)-4-((1-(4-chloro-1-oxo-2-phenyl-8-(2-(pyrrolidin-1-yl)pyrimidin-5-yl)-1,2-dihydroisoquinolin-3-yl)ethyl)amino)pyrido[2,3-d]pyrimidin-5(8H)-one] | 75% | 55% | – | – | – | – |
| C[C@H](Nc1ncnc2[nH]ccc(=O)c12)c1c(Cl)c2cccc(-c3ccc(C4CCOCC4)cc3)c2c(=O)n1-c1ccccc1 [Example 176, (S)-4-((1-(4-chloro-1-oxo-2-phenyl-8-(4-(tetrahydro-2H-pyran-4-yl)phenyl)-1,2-dihydroisoquinolin-3-yl)ethyl)amino)pyrido[2,3-d]pyrimidin-5(8H)-one] | 19% | 48% | – | – | – | – |
| C[C@H](Nc1ncnc2[nH]ccc(=O)c12)c1c(Cl)c2cccc(-c3cccc(F)c3Cl)c2c(=O)n1-c1ccccc1 [Example 106, (S)-4-((1-(4-chloro-8-(2-chloro-3-fluorophenyl)-1-oxo-2-phenyl-1,2-dihydroisoquinolin-3-yl)ethyl)amino)pyrido[2,3-d]pyrimidin-5(8H)-one] | 53% | 14% | 87% | 59% | – | – |
| C[C@H](Nc1ncnc2[nH]ccc(=O)c12)c1c(Cl)c2cccc(C#Cc3ccnn3C)c2c(=O)n1-c1ccccc1 [Example 311, (S)-4-((1-(4-chloro-8-((1-methyl-1H-pyrazol-5-yl)ethynyl)-1-oxo-2-phenyl-1,2-dihydroisoquinolin-3-yl)ethyl)amino)pyrido[2,3-d]pyrimidin-5(8H)-one] | 18.2% | 47.1% | 39.5% | 82.2% | – | – |
| C[C@H](Nc1ncnc2[nH]ccc(=O)c12)c1c(Cl)c2cccc(/C=N/O)c2c(=O)n1-c1ccccc1 [Example 273, (S,E)-4-chloro-1-oxo-3-(1-((5-oxo-5,8-dihydropyrido[2,3-d]pyrimidin-4-yl)amino)ethyl)-2-phenyl-1,2-dihydroisoquinoline-8-carbaldehyde oxime] | 44% | 36% | – | – | – | – |
| CC(O)c1ccc(-c2cccc3c(Cl)c([C@H](C)Nc4ncnc5[nH]ccc(=O)c45)n(-c4ccccc4)c(=O)c23)cc1 (stereo partly drawn) [Example 57, 4-(((1S)-1-(4-chloro-8-(4-(1-hydroxyethyl)phenyl)-1-oxo-2-phenyl-1,2-dihydroisoquinolin-3-yl)ethyl)amino)pyrido[2,3-d]pyrimidin-5(8H)-one] | 97% | 80% | – | – | – | – |
| CON=C(C)c1cccc2c(Cl)c([C@H](C)Nc3ncnc4[nH]ccc(=O)c34)n(-c3ccccc3)c(=O)c12 (stereo in doubt) [Example 270, (S,Z)-4-((1-(4-chloro-8-(1-(methoxyimino)ethyl)-1-oxo-2-phenyl-1,2-dihydroisoquinolin-3-yl)ethyl)amino)pyrido[2,3-d]pyrimidin-5(8H)-one] | 63% | 60% | – | – | – | – |
| CNC(=O)c1cccc2c(Cl)c([C@H](C)Nc3ncnc4[nH]ccc(=O)c34)n(-c3ccccc3)c(=O)c12 [Example 274, (S)-4-chloro-N-methyl-1-oxo-3-(1-((5-oxo-5,8-dihydropyrido[2,3-d]pyrimidin-4-yl)amino)ethyl)-2-phenyl-1,2-dihydroisoquinoline-8-carboxamide] | 99% | 18% | – | – | – | – |
| C[C@H](Nc1ncnc2[nH]ccc(=O)c12)c1c(Cl)c2cccc(-c3cnc(OC(C)(C)C)nc3)c2c(=O)n1-c1ccccc1 [Example 424, (S)-4-((1-(8-(2-(tert-butoxy)pyrimidin-5-yl)-4-chloro-1-oxo-2-phenyl-1,2-dihydroisoquinolin-3-yl)ethyl)amino)pyrido[2,3-d]pyrimidin-5(8H)-one] | – | – | – | – | 38% | 56% |
| C[C@H](Nc1ncnc2[nH]ccc(=O)c12)c1c(Cl)c2cccc(-c3ccc(-c4nccs4)cc3)c2c(=O)n1-c1ccccc1 [Example 29, (S)-4-((1-(4-chloro-1-oxo-2-phenyl-8-(4-(thiazol-2-yl)phenyl)-1,2-dihydroisoquinolin-3-yl)ethyl)amino)pyrido[2,3-d]pyrimidin-5(8H)-one] | 70% | 99% | – | – | – | – |
| C[C@H](Nc1ncnc2[nH]ccc(=O)c12)c1c(Cl)c2cccc(-c3cccc(C=O)c3)c2c(=O)n1-c1ccccc1 [Example 79, (S)-3-(4-chloro-1-oxo-3-(1-((5-oxo-5,8-dihydropyrido[2,3-d]pyrimidin-4-yl)amino)ethyl)-2-phenyl-1,2-dihydroisoquinolin-8-yl)benzaldehyde] | 114% | 82% | 111% | 98% | – | – |
| C[C@H](Nc1ncnc2[nH]ccc(=O)c12)c1c(Cl)c2cccc(C(=O)O)c2c(=O)n1-c1ccccc1 [Example 290, (S)-4-chloro-1-oxo-3-(1-((5-oxo-5,8-dihydropyrido[2,3-d]pyrimidin-4-yl)amino)ethyl)-2-phenyl-1,2-dihydroisoquinoline-8-carboxylic acid] | 80% | 39% | 102% | 76% | – | – |
| C[C@H](Nc1ncnc2[nH]ccc(=O)c12)c1c(Cl)c2cccc(C#Cc3ccc(C(F)(F)F)cc3)c2c(=O)n1-c1ccccc1 [Example 315, (S)-4-((1-(4-chloro-1-oxo-2-phenyl-8-((4-(trifluoromethyl)phenyl)ethynyl)-1,2-dihydroisoquinolin-3-yl)ethyl)amino)-5-oxo-5,8-dihydropyrido[2,3-d]pyrimidin-5(8H)-one, 2,2,2-trifluoroacetate] | 39% | 18% | 89% | 62% | – | – |
